Read-outs that look alike come from different tables or passages of the source.

For data set [1], the target named is T1, alcohol dehydrogenase from L. brevis (Levilactobacillus brevis, UniProt Q84EX5).
T1 sequence (Q84EX5 2-252): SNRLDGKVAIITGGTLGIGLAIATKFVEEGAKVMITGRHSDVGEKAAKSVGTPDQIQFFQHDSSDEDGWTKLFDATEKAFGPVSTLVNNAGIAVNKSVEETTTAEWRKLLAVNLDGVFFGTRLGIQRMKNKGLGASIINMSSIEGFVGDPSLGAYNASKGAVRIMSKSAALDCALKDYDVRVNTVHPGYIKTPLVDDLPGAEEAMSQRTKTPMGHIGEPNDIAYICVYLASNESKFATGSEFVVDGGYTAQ
Description: biochemical. It counts as biochemical. As to conditions: for Activity: 0.19 mM NADPH, pH 7.0, purified enzyme diluted 1:10. Here is the method: A series of other ketones and keto esters were used instead of acetophenone and it was tested whether these can be reduced by enzyme catalysis.
The following test mixture was used for this:
970 μl triethanolamine buffer (50 mM; pH 7.0, containing 10 mM keto compound)
20 μl NADPH (0.19 mM in the test)
Some of the ketones were also tested at a concentration of 1 mM in order to verify a possible substrate inhibition at 10 mM.

The nature of data set [2]: Temperature stability of the alcohol dehydrogenase (30 min at temperature, measured at 30° C.). It counts as physicochemical. The protocol: The temperature stability in the range of 25 to 70° C. was determined in an analogous manner to that described under A. The homogeneous enzyme solution was subjected for 30 min to the recited temperatures and subsequently measured directly at 30° C. with the above test mixture. […] In contrast the ADH from L. kefir is only stable up to 40° C. with a maximum at 37° C., afterwards the activity decreases rapidly. The maximum for this enzyme is at 37° C.

Data set [3] in a line: Temperature optimum of enzyme activity. It counts as biochemical.
The mark [4] stands for this setting: relative to acetophenone = 100, 10 mM keto compound, read-out: Relative act.
Setting [5] is: relative to acetophenone = 100, 10 mM keto compound.

As to `C(CCOCC1CO1)COCC1CO1` (stereo not drawn) [1,4-butanediol-diglyceridyl ether], the Activity in data set [1] (10 mM keto compound) is reported as 0.77 U/ml. In addition, in data set [1] (read-out: Relative act.), the activity at 10000 µM stood at 24%.

In data set [1] (10 mM keto compound), `CC(=O)CC(C)=O` [2,4-pentanedione] came in with an Activity of 4.22 U/ml. In addition, the activity at 10000 µM in data set [1] (read-out: Relative act.) is 130%.

As to `CC(=O)c1ccccc1Cl` [2-Cl-acetophenone], the Activity in data set [1] (10 mM keto compound) turned out to be 0.33 U/ml. The activity at 10000 µM in data set [1] (read-out: Relative act.) worked out at 10%.

Turning to `CC1CCCCC1=O` (stereo not drawn) [2-methylcyclohexanone], the Activity in data set [1] (10 mM keto compound) came out at 6.25 U/ml. The activity at 10000 µM in data set [1] (setting [4]) is 192%.

In the case of `CCOC(=O)C(=O)CCc1ccccc1` [2-oxo-4-phenylbutyric acid ethyl ester], the Activity in data set [1] (10 mM keto compound) amounted to 4.60 U/ml. For the same compound, in data set [1] (setting [5]), the Relative act. is 141%.

In data set [1] (10 mM keto compound), `CC(=O)c1cccc(Cl)c1` [3-Cl-acetophenone] gave an Activity of 4.80 U/ml. In data set [1] (read-out: Relative act.), the activity at 10000 µM amounted to 147%.

Consider `CCOC(=O)CC(=O)CC` [3-oxo-n-valeric acid ethyl ester], for which the Activity in data set [1] (10 mM keto compound) is recorded as 2.29 U/ml. The activity at 10000 µM in data set [1] (setting [4]) is 70%.

Regarding `CCC(=O)CC(=O)OC` [3-oxo-n-valeric acid methyl ester], the Activity in data set [1] (10 mM keto compound) was 2.26 U/ml. For the same compound, in data set [1] (setting [4]), the activity at 10000 µM came to 69%.

`CCOC(=O)CC(=O)CCl` [4-Cl-acetic acid ethyl ester] displayed an Activity in data set [1] (10 mM keto compound) of 3.04 U/ml. In data set [1] (read-out: Relative act.), the activity at 10000 µM was 93%.

Take `CC(=O)c1ccc(Cl)cc1` [4-Cl-acetophenone]: the Activity in data set [1] (10 mM keto compound) came out at 6.63 U/ml. In addition, the activity at 10000 µM in data set [1] (read-out: Relative act.) amounted to 203%.

As for `CCOC(=O)CCCC(C)=O` [4-acetylbutyric acid ethyl ester], the Activity in data set [1] (10 mM keto compound) was 2.84 U/ml. Further, the activity at 10000 µM in data set [1] (setting [4]) was determined as 87%.

Regarding `CC(=O)CCCC(=O)O` [4-acetylbutyric acid], the Activity in data set [1] (10 mM keto compound) was 0.32 U/ml. Moreover, the activity at 10000 µM in data set [1] (setting [4]) was determined as 10%.

On to `CCc1ccc(C(C)=O)cc1` [4-ethylacetophenone], for which the Activity in data set [1] (10 mM keto compound) was determined as 2.13 U/ml. Moreover, the activity at 10000 µM in data set [1] (read-out: Relative act.) amounted to 65%.

In the case of `CCCCOC(C)=O` [acetic acid butyl ester], in data set [1] (10 mM keto compound), the Activity amounted to 2.07 U/ml. Further, the activity at 10000 µM in data set [1] (read-out: Relative act.) is 64%.

For the compound `CC(=O)CC(=O)OCc1ccccc1` [aceto acetic acid benzyl ester], the Activity in data set [1] (10 mM keto compound) is listed as 4.11 U/ml. Moreover, in data set [1] (setting [4]), the activity at 10000 µM amounted to 126%.

In turn, `CCOC(=O)CC(C)=O` [aceto acetic acid ethyl ester] returned an Activity in data set [1] (10 mM keto compound) of 3.54 U/ml. The activity at 10000 µM in data set [1] (read-out: Relative act.) came to 109%.

Turning to `COC(=O)CC(C)=O` [aceto acetic acid methyl ester], the Activity in data set [1] (10 mM keto compound) was 3.81 U/ml. Moreover, the activity at 10000 µM in data set [1] (read-out: Relative act.) worked out at 117%.

Consider `O=Cc1ccccc1` [benzaldehyde], for which, in data set [1] (10 mM keto compound), the Activity is 0.30 U/ml. The activity at 10000 µM in data set [1] (read-out: Relative act.) was 9%.

In the case of `CCOC(=O)CC(=O)c1ccccc1` [benzoyl acetic acid ethyl ester], the Activity in data set [1] (10 mM keto compound) is reported as 1.14 U/ml. Also, the activity at 10000 µM in data set [1] (setting [4]) is 35%.

For `CC(=O)CCc1ccccc1` [benzylacetone], the Activity in data set [1] (10 mM keto compound) worked out at 3.24 U/ml. In data set [1] (read-out: Relative act., relative to acetophenone = 100, 10 mM keto compound), the activity at 10000 µM amounted to 99%.

In data set [1] (10 mM keto compound), `CC(=O)Cc1ccccc1` [benzylmethyl ketone] yielded an Activity of 0.36 U/ml. Besides, in data set [1] (read-out: Relative act.), the activity at 10000 µM is 11%.

`CCOC(=O)CC1CCCCC1=O` (stereo not drawn) [cyclohexanone-2-acetic acid ethyl ester] returned an Activity in data set [1] (10 mM keto compound) of 0.14 U/ml. In data set [1] (setting [4]), the activity at 10000 µM was found to be 4%.

`CCOC(=O)C1CCCCC1=O` (stereo not drawn) [cyclohexanone-2-carboxylic acid ethyl ester] gave an Activity in data set [1] (10 mM keto compound) of 0.41 U/ml. The activity at 10000 µM in data set [1] (setting [4]) was determined as 13%.

`CCOC(=O)C(C)=O` [ethyl pyruvate] had an Activity in data set [1] (10 mM keto compound) of 8.10 U/ml. The activity at 10000 µM in data set [1] (setting [4]) stood at 248%.

Turning to `CCOC(=O)C(C)C(C)=O` (stereo not drawn) [ethyl-2-methylacetoacetate], in data set [1] (10 mM keto compound), the Activity amounted to 0.84 U/ml. The activity at 10000 µM in data set [1] (setting [4]) was 26%.

With `CCOC(=O)C(=O)CCc1ccccc1` [ethyl-2-oxo-4-phenyl butyrate], in data set [1] (10 mM keto compound), the Activity is on record as 0.40 U/ml. Moreover, in data set [1] (setting [5]), the Relative act. is reported as 12%.

As for `CCCC(=O)CC(=O)OCC` [ethylbutyryl acetate], the Activity in data set [1] (10 mM keto compound) amounted to 2.21 U/ml. The activity at 10000 µM in data set [1] (setting [4]) turned out to be 68%.

In the case of `CC(=O)CO` [hydroxyacetone], the Activity in data set [1] (10 mM keto compound) was found to be 0.74 U/ml. Besides, in data set [1] (setting [4]), the activity at 10000 µM came out at 23%.

With `CCOC(=O)CC(=O)C(C)C` [isobutyrylacetic acid ethyl ester], the Activity in data set [1] (10 mM keto compound) turned out to be 1.93 U/ml. Moreover, the activity at 10000 µM in data set [1] (setting [4]) was found to be 59%.

The compound `CCOC(=O)CCC(C)=O` [laevulinic acid ethyl ester] came in with an Activity in data set [1] (10 mM keto compound) of 2.99 U/ml. Moreover, the activity at 10000 µM in data set [1] (setting [4]) stood at 92%.

On to `COC(=O)C(C)=O` [methyl pyruvate], for which, in data set [1] (10 mM keto compound), the Activity is recorded as 3.22 U/ml. Besides, the activity at 10000 µM in data set [1] (setting [4]) stood at 98%.

As for `CC(=O)c1cccc2ccccc12` [methyl-1-naphthyl ketone], the Activity in data set [1] (10 mM keto compound) is given as 1.21 U/ml. Further, the activity at 10000 µM in data set [1] (setting [4]) worked out at 37%.

`CCC(=O)c1ccccc1` [propiophenone] came in with an Activity in data set [1] (10 mM keto compound) of 0.55 U/ml. Besides, in data set [1] (read-out: Relative act.), the activity at 10000 µM is 17%.

Compound `CCOC(=O)C(F)(F)F` [trifluoroacetic acid ethyl ester] showed an Activity in data set [1] (10 mM keto compound) of 0.50 U/ml. Besides, the activity at 10000 µM in data set [1] (read-out: Relative act.) came to 15%.

As for “alcohol dehydrogenase from Lactobacillus kefir: NADP-dependent R-alcohol dehydrogenase from Lactobacillus kefir (DE 40 14 573 C1), comparison enzyme [reference compound]”, the “temperature at which the enzyme is inactivated by 50% (thermal deactivation)” value in data set [2] turned out to be 45 °C. The “temperature of maximum stability” value in data set [2] (30 min) amounted to 37 °C. For the same compound, the “temperature range in which the enzyme is stable” value in data set [2] (30 min) was “up to 40 °C”. For the same compound, the “act. (temperature stability)” value stood at 36.5 U/ml in data set [2] (30 min at 25° C.); 30.2 U/ml in data set [2] (30 min at 30° C.); 35.8 U/ml in data set [2] (30 min at 37° C.); 32 U/ml in data set [2] (30 min at 40° C.); 26.2 U/ml in data set [2] (30 min at 45° C.); 2.4 U/ml in data set [2] (30 min at 50° C.). Also, the “act. (temperature stability)” value in data set [2] (30 min at 55° C.) came to 0 U/ml. Further, the “optimal test temperature (activity maximum)” value in data set [3] amounted to 37 °C. Further, the “act. (temperature optimum)” value in data set [3] (test temperature 20° C.) is reported as 28.0 U/ml; in data set [3] (test temperature 25° C.), 28.2 U/ml; in data set [3] (test temperature 30° C.) it was 35.2 U/ml; in data set [3] (test temperature 35° C.), 36.2 U/ml; in data set [3] (test temperature 40° C.) it was 34.4 U/ml; in data set [3] (test temperature 45° C.), 35.4 U/ml. In addition, the “act. (temperature optimum)” value stood at 26.0 U/ml in data set [3] (test temperature 50° C.), 3.0 U/ml in data set [3] (test temperature 55° C.) and 0 U/ml in data set [3] (test temperature 60° C.).

ketovaleric acid registered an Activity in data set [1] (10 mM keto compound) of 0.27 U/ml. In data set [1] (setting [5]), the Relative act. was 8%.

(Values after patent US6037158A, “Alcohol dehydrogenase and its use for the enzymatic production of chiral hydroxy compounds” (priority 1996, dated 2000).)
